In the NIST ThermoML archive (doi:10.1021/je800110r):
“And” between values parts separate entries of the source, which are not always exact repeats. Identical values can stand only once.

Conditions: 323.15 K, Liquid, Vibrating tube method

CCCCCCCCCC [decane]
Conditions	mass density
979 kPa	707.8 kg/m3
1136 kPa	707.9 kg/m3
1175 kPa	707.9 kg/m3
2516 kPa	709.2 kg/m3
2603 kPa	709.2 kg/m3
2658 kPa	709.3 kg/m3
2678 kPa	709.4 kg/m3
2691 kPa	709.3 kg/m3
2692 kPa	709.2 kg/m3 and 709.4 kg/m3
2703 kPa	709.4 kg/m3
2822 kPa	709.4 kg/m3
2861 kPa	709.4 kg/m3
2878 kPa	709.5 kg/m3
2894 kPa	709.6 kg/m3
2913 kPa	709.5 kg/m3
2936 kPa	709.5 kg/m3
2951 kPa	709.6 kg/m3
2967 kPa	709.5 kg/m3
2987 kPa	709.6 kg/m3
3000 kPa	709.7 kg/m3
3022 kPa	709.6 kg/m3
3044 kPa	709.5 kg/m3
3064 kPa	709.6 kg/m3
3081 kPa	709.7 kg/m3
4273 kPa	710.8 kg/m3
4294 kPa	710.8 kg/m3
4322 kPa	710.8 kg/m3
4342 kPa	710.9 kg/m3
4361 kPa	710.8 kg/m3
4382 kPa	710.8 kg/m3
4423 kPa	710.9 kg/m3
4487 kPa	711 kg/m3
4606 kPa	711 kg/m3
4625 kPa	711.1 kg/m3
4647 kPa	711.1 kg/m3
4668 kPa	711.2 kg/m3
4685 kPa	711.2 kg/m3
4861 kPa	711.3 kg/m3
4889 kPa	711.4 kg/m3
4922 kPa	711.3 kg/m3
5651 kPa	712 kg/m3
5805 kPa	712.2 kg/m3
5822 kPa	712.1 kg/m3
5843 kPa	712.2 kg/m3
5857 kPa	712.3 kg/m3
5874 kPa	712.2 kg/m3
5887 kPa	712.2 kg/m3
6263 kPa	712.6 kg/m3
6285 kPa	712.6 kg/m3
6300 kPa	712.6 kg/m3
6321 kPa	712.5 kg/m3
6341 kPa	712.7 kg/m3
6363 kPa	712.7 kg/m3
6380 kPa	712.6 kg/m3
6398 kPa	712.7 kg/m3
6436 kPa	712.7 kg/m3
6474 kPa	712.7 kg/m3
6492 kPa	712.8 kg/m3
6514 kPa	712.7 kg/m3
6635 kPa	712.8 kg/m3
6654 kPa	712.9 kg/m3
6678 kPa	712.9 kg/m3
6703 kPa	713 kg/m3
6916 kPa	713 kg/m3
6934 kPa	713.1 kg/m3
6961 kPa	713.2 kg/m3
6979 kPa	713.1 kg/m3
7007 kPa	713.1 kg/m3
7029 kPa	713.3 kg/m3
7057 kPa	713.3 kg/m3
7082 kPa	713.3 kg/m3
7102 kPa	713.2 kg/m3
7118 kPa	713.3 kg/m3
7137 kPa	713.4 kg/m3
7158 kPa	713.4 kg/m3
7174 kPa	713.4 kg/m3
7190 kPa	713.4 kg/m3
7203 kPa	713.3 kg/m3
7224 kPa	713.3 kg/m3
7238 kPa	713.4 kg/m3
7254 kPa	713.5 kg/m3
7271 kPa	713.5 kg/m3
7304 kPa	713.4 kg/m3
7318 kPa	713.5 kg/m3
7339 kPa	713.4 kg/m3
7354 kPa	713.4 kg/m3
7368 kPa	713.5 kg/m3
8395 kPa	714.3 kg/m3
8425 kPa	714.4 kg/m3
8563 kPa	714.5 kg/m3
8605 kPa	714.6 kg/m3
9325 kPa	715.2 kg/m3
9451 kPa	715.3 kg/m3
10321 kPa	715.9 kg/m3
10344 kPa	716 kg/m3
10548 kPa	716.3 kg/m3
11286 kPa	716.8 kg/m3
11307 kPa	716.8 kg/m3
11331 kPa	716.8 kg/m3
11359 kPa	716.8 kg/m3
11377 kPa	716.9 kg/m3
11401 kPa	717 kg/m3
11467 kPa	717 kg/m3
12096 kPa	717.5 kg/m3
12122 kPa	717.5 kg/m3
12147 kPa	717.6 kg/m3
12173 kPa	717.6 kg/m3
12190 kPa	717.7 kg/m3
12213 kPa	717.5 kg/m3
12230 kPa	717.6 kg/m3
12257 kPa	717.6 kg/m3
12397 kPa	717.7 kg/m3
12417 kPa	717.7 kg/m3
12435 kPa	717.8 kg/m3
12457 kPa	717.8 kg/m3
12472 kPa	717.8 kg/m3
12495 kPa	717.8 kg/m3
12510 kPa	717.9 kg/m3
12528 kPa	717.8 kg/m3
12854 kPa	718.2 kg/m3
12869 kPa	718.2 kg/m3
12887 kPa	718.1 kg/m3
12906 kPa	718.2 kg/m3
12919 kPa	718.1 kg/m3
12964 kPa	718.2 kg/m3
12977 kPa	718.3 kg/m3
12991 kPa	718.2 kg/m3
13012 kPa	718.2 kg/m3
13060 kPa	718.2 kg/m3
13843 kPa	718.9 kg/m3
13863 kPa	718.9 kg/m3
13877 kPa	718.9 kg/m3
13892 kPa	719 kg/m3
13909 kPa	719 kg/m3
13924 kPa	719 kg/m3
13946 kPa	719 kg/m3
13966 kPa	719 kg/m3
13981 kPa	719.1 kg/m3
14001 kPa	719 kg/m3
14021 kPa	719 kg/m3
14043 kPa	719 kg/m3
14066 kPa	719.2 kg/m3
14084 kPa	719.2 kg/m3
14099 kPa	719.1 kg/m3
14124 kPa	719.2 kg/m3
14140 kPa	719.3 kg/m3
14160 kPa	719.2 kg/m3
14173 kPa	719.2 kg/m3
14274 kPa	719.2 kg/m3
14317 kPa	719.3 kg/m3
14348 kPa	719.5 kg/m3
14364 kPa	719.3 kg/m3
14385 kPa	719.4 kg/m3
14404 kPa	719.4 kg/m3
14424 kPa	719.4 kg/m3
14622 kPa	719.6 kg/m3
14631 kPa	719.5 kg/m3
14647 kPa	719.5 kg/m3
14657 kPa	719.7 kg/m3
14679 kPa	719.6 kg/m3
14688 kPa	719.6 kg/m3
14701 kPa	719.6 kg/m3
14711 kPa	719.7 kg/m3
14725 kPa	719.7 kg/m3
14741 kPa	719.6 kg/m3
14753 kPa	719.7 kg/m3
15015 kPa	719.9 kg/m3
15023 kPa	719.9 kg/m3
15033 kPa	719.8 kg/m3
15047 kPa	720 kg/m3
15058 kPa	719.9 kg/m3
15068 kPa	719.9 kg/m3
15085 kPa	720 kg/m3
15095 kPa	719.9 kg/m3
15112 kPa	720 kg/m3
15120 kPa	719.9 kg/m3
15130 kPa	719.9 kg/m3
15143 kPa	720.1 kg/m3
15159 kPa	720 kg/m3
15170 kPa	720 kg/m3
15184 kPa	720 kg/m3
15196 kPa	720.1 kg/m3
15211 kPa	720 kg/m3
15222 kPa	720 kg/m3
15237 kPa	720 kg/m3
15249 kPa	720 kg/m3
15266 kPa	720.1 kg/m3
15275 kPa	720.1 kg/m3
15286 kPa	720 kg/m3
15303 kPa	720.2 kg/m3
15312 kPa	720.1 kg/m3
15326 kPa	720.1 kg/m3
15340 kPa	720.2 kg/m3
15388 kPa	720.2 kg/m3
15397 kPa	720.2 kg/m3
15411 kPa	720.2 kg/m3
15423 kPa	720.2 kg/m3
15686 kPa	720.4 kg/m3
15697 kPa	720.5 kg/m3
15712 kPa	720.4 kg/m3
15721 kPa	720.5 kg/m3
16291 kPa	721 kg/m3
16333 kPa	721 kg/m3
16345 kPa	721.1 kg/m3
16357 kPa	720.9 kg/m3
16371 kPa	721.1 kg/m3
16383 kPa	720.9 kg/m3
16398 kPa	721.1 kg/m3
16410 kPa	720.9 kg/m3
16426 kPa	721.1 kg/m3
16436 kPa	721.1 kg/m3
16448 kPa	721.1 kg/m3
16460 kPa	721.2 kg/m3
16473 kPa	721 kg/m3
16595 kPa	721.1 kg/m3
16627 kPa	721.2 kg/m3
16637 kPa	721.2 kg/m3
16673 kPa	721.2 kg/m3
16691 kPa	721.2 kg/m3
16708 kPa	721.1 kg/m3
16721 kPa	721.3 kg/m3
16735 kPa	721.2 kg/m3
16752 kPa	721.2 kg/m3
16764 kPa	721.2 kg/m3
16784 kPa	721.3 kg/m3
16797 kPa	721.3 kg/m3
16817 kPa	721.4 kg/m3
16829 kPa	721.3 kg/m3
16849 kPa	721.4 kg/m3
16864 kPa	721.5 kg/m3
16876 kPa	721.4 kg/m3
16889 kPa	721.3 kg/m3
16910 kPa	721.3 kg/m3
16921 kPa	721.4 kg/m3
16934 kPa	721.4 kg/m3
16951 kPa	721.4 kg/m3
16964 kPa	721.4 kg/m3
16980 kPa	721.5 kg/m3
16995 kPa	721.4 kg/m3
17043 kPa	721.5 kg/m3
17058 kPa	721.4 kg/m3
17077 kPa	721.6 kg/m3
17095 kPa	721.5 kg/m3
17112 kPa	721.4 kg/m3
17130 kPa	721.6 kg/m3
17141 kPa	721.5 kg/m3
17157 kPa	721.6 kg/m3
17172 kPa	721.4 kg/m3
17190 kPa	721.6 kg/m3
17203 kPa	721.6 kg/m3
17223 kPa	721.6 kg/m3
17241 kPa	721.6 kg/m3
17254 kPa	721.7 kg/m3
17628 kPa	722 kg/m3
18716 kPa	722.8 kg/m3
18779 kPa	722.8 kg/m3
18862 kPa	722.9 kg/m3
18883 kPa	722.8 kg/m3
19079 kPa	723 kg/m3
19095 kPa	723.2 kg/m3
19120 kPa	723 kg/m3
19140 kPa	723.1 kg/m3
19159 kPa	723.1 kg/m3
19176 kPa	723.2 kg/m3
19198 kPa	723.2 kg/m3
19220 kPa	723.2 kg/m3
19240 kPa	723.2 kg/m3
19286 kPa	723.3 kg/m3
19330 kPa	723.3 kg/m3
19527 kPa	723.5 kg/m3
19547 kPa	723.4 kg/m3
19614 kPa	723.5 kg/m3
19699 kPa	723.6 kg/m3
